How the values were obtained:
Assay type in all cases: in vivo
[1] = test system: pigweed (Amaranthus retroflexus); assay: Test B pre-/postemergence plant response; details: for Plant response rating, Pigweed: Postemergence
Procedure, shortened: (§1)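 Test compounds, formulated in a non-phytotoxic solvent mixture with surfactant, are applied to the soil surface (loam and sand blend) right after seeding, or sprayed over plants at the 1- to 4-leaf stage grown in peat moss/vermiculite medium. After 13 to 15 days under glasshouse conditions, each species is scored visually from 0 (no effect) to 100 (complete control) against controls.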

[2] = test system: wheat (Triticum aestivum); assay: Test B pre-/postemergence plant response; details: for Plant response rating, Wheat: Postemergence
Procedure, shortened: as §1

[3] = test system: woolly cupgrass (Eriochloa villosa); assay: Test B pre-/postemergence plant response; details: for Plant response rating, Cupgrass, Woolly: Postemergence
Procedure, shortened: as §1

[4] = test system: Surinam grass (Brachiaria decumbens); assay: Test B pre-/postemergence plant response; details: for Plant response rating, Surinam Grass: Postemergence
Procedure, shortened: as §1

[5] = test system: lambsquarters (Chenopodium album); assay: Test B pre-/postemergence plant response; details: for Plant response rating, Lambsquarters: Postemergence
Procedure, shortened: as §1

[6] = test system: downy bromegrass (Bromus tectorum); assay: Test B pre-/postemergence plant response; details: for Bromegrass, Downy plant response rating (0 to 100 scale): 62 g ai/ha, postemergence, 0 is no effect, 100 is complete control; for Plant response rating, Bromegrass, Downy: Postemergence
Procedure, shortened: as §1

[7] = test system: yellow nutsedge (Cyperus esculentus); assay: Test B pre-/postemergence plant response; details: for Plant response rating, Nutsedge, Yellow: Postemergence
Procedure, shortened: as §1

[8] = test system: bermudagrass (Cynodon dactylon); assay: Test B pre-/postemergence plant response; details: for Bermudagrass plant response rating (0 to 100 scale): 62 g ai/ha, postemergence, 0 is no effect, 100 is complete control; for Plant response rating, Bermudagrass: Postemergence
Procedure, shortened: as §1

[9] = test system: ducksalad (Heteranthera limosa); assay: Test B flooded paddy test; details: for Plant response rating, Flood, Ducksalad: 250 g ai/ha, flooded paddy test, visual rating on 0 to 100 scale (0 no effect, 100 complete control) after 13 to 15 days; for Plant response rating, Ducksalad: Flood (flooded paddy test), 13 to 15 days; for Ducksalad plant response rating: Flood, 31 g ai/ha, scale 0 to 100 (0 no effect, 100 complete control)
Procedure, shortened: (§2)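 Seedlings reaching 2 leaves are flooded 3 cm deep; test material is delivered to that water, which stays at the same depth. Plants remain in a greenhouse 13–15 days and are then scored by eye versus controls from 0 to 100.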

[10] = test system: barnyardgrass (Echinochloa crus-galli); assay: Test B flooded paddy test; details: for Plant response rating, Flood, Barnyardgrass: 250 g ai/ha, flooded paddy test, visual rating on 0 to 100 scale (0 no effect, 100 complete control) after 13 to 15 days; for Plant response rating, Barnyardgrass: Flood (flooded paddy test), 13 to 15 days; for Barnyardgrass plant response rating: Flood, 31 g ai/ha, scale 0 to 100 (0 no effect, 100 complete control)
Procedure, shortened: as §2

[11] = test system: umbrella sedge (Cyperus difformis); assay: Test B flooded paddy test; details: for Plant response rating, Flood, Sedge, Umbrella: 250 g ai/ha, flooded paddy test, visual rating on 0 to 100 scale (0 no effect, 100 complete control) after 13 to 15 days; for Plant response rating, Sedge, Umbrella: Flood (flooded paddy test), 13 to 15 days; for Sedge, Umbrella plant response rating: Flood, 31 g ai/ha, scale 0 to 100 (0 no effect, 100 complete control)
Procedure, shortened: as §2

[12] = test system: rice (Oryza sativa); assay: Test B flooded paddy test; details: for Plant response rating, Flood, Rice: 250 g ai/ha, flooded paddy test, visual rating on 0 to 100 scale (0 no effect, 100 complete control) after 13 to 15 days; for Plant response rating, Rice: Flood (flooded paddy test), 13 to 15 days; for Rice plant response rating: Flood, 31 g ai/ha, scale 0 to 100 (0 no effect, 100 complete control)
Procedure, shortened: as §2

[13] = 62 g ai/ha, postemergence, 0 is no effect, 100 is complete control, 13 to 15 days
[14] = 31 g ai/ha, 0 to 100 scale (0 no effect, 100 complete control)
[15] = 125 g ai/ha, scale 0 to 100 (0 no effect, 100 complete control)
[16] = 250 g ai/ha, scale 0 to 100 (0 no effect, 100 complete control), 13 to 15 days
[17] = 62 g ai/ha, scale of 0 to 100 where 0 is no effect and 100 is complete control
[18] = 125 g ai/ha, scale 0 to 100, 0 is no effect, 100 is complete control

SMILES: CCCn1c(-c2cccc(C(F)(F)F)c2)ncc(C(=O)C2=C(O)CCCC2=O)c1=O [Compound 155]
- Pigweed plant response rating (0 to 100 scale) [1, 13]: 100
- Plant response rating, Pigweed [1, 14]: 98
- Plant response rating, Pigweed [1, 15]: 100
- Plant response rating, Pigweed [1, 16]: 100
- Wheat plant response rating (0 to 100 scale) [2, 13]: 30
- Plant response rating, Wheat [2, 14]: 15
- Plant response rating, Wheat [2, 15]: 40
- Plant response rating, Wheat [2, 16]: 70
- Cupgrass, Woolly plant response rating (0 to 100 scale) [3, 13]: 45
- Plant response rating, Cupgrass, Woolly [3, 14]: 20
- Plant response rating, Cupgrass, Woolly [3, 15]: 65
- Plant response rating, Cupgrass, Woolly [3, 16]: 75
- Surinam Grass plant response rating (0 to 100 scale) [4, 13]: 55
- Plant response rating, Surinam Grass [4, 14]: 40
- Plant response rating, Surinam Grass [4, 15]: 65
- Plant response rating, Surinam Grass [4, 16]: 75
- Lambsquarters plant response rating (0 to 100 scale) [5, 13]: 100
- Plant response rating, Lambsquarters [5, 14]: 98
- Plant response rating, Lambsquarters [5, 15]: 100
- Plant response rating, Lambsquarters [5, 16]: 100
- Bromegrass, Downy plant response rating (0 to 100 scale) ([6]; 13 to 15 days): 30
- Plant response rating, Bromegrass, Downy [6, 14]: 5
- Plant response rating, Bromegrass, Downy [6, 15]: 35
- Plant response rating, Bromegrass, Downy [6, 16]: 50
- Nutsedge, Yellow plant response rating (0 to 100 scale) [7, 13]: 45
- Plant response rating, Nutsedge, Yellow [7, 14]: 20
- Plant response rating, Nutsedge, Yellow [7, 15]: 70
- Plant response rating, Nutsedge, Yellow [7, 16]: 75
- Bermudagrass plant response rating (0 to 100 scale) ([8]; 13 to 15 days): 98
- Plant response rating, Bermudagrass [8, 14]: 85
- Plant response rating, Bermudagrass [8, 15]: 98
- Plant response rating, Bermudagrass [8, 16]: 100
- Plant response rating, Flood, Ducksalad [9]: 95
- Plant response rating, Ducksalad [9, 17]: 60
- Plant response rating, Ducksalad [9, 18]: 85
- Ducksalad plant response rating [9]: 0
- Plant response rating, Flood, Barnyardgrass [10]: 45
- Plant response rating, Barnyardgrass [10, 17]: 0
- Plant response rating, Barnyardgrass [10, 18]: 20
- Barnyardgrass plant response rating [10]: 0
- Plant response rating, Flood, Sedge, Umbrella [11]: 100
- Plant response rating, Sedge, Umbrella [11, 17]: 60
- Plant response rating, Sedge, Umbrella [11, 18]: 85
- Sedge, Umbrella plant response rating [11]: 60
- Plant response rating, Flood, Rice [12]: 45
- Plant response rating, Rice [12, 17]: 0
- Plant response rating, Rice [12, 18]: 25
- Rice plant response rating [12]: 0

SMILES: CCCn1c(-c2cc(C)cc(C)c2)ncc(C(=O)C2=C(O)CCCC2=O)c1=O [Compound 156]
- Plant response rating, Pigweed [1, 14]: 60
- Plant response rating, Pigweed [1, 15]: 98
- Plant response rating, Pigweed [1, 16]: 100
- Plant response rating, Wheat [2, 14]: 15
- Plant response rating, Wheat [2, 15]: 35
- Plant response rating, Wheat [2, 16]: 45
- Plant response rating, Cupgrass, Woolly [3, 14]: 40
- Plant response rating, Cupgrass, Woolly [3, 15]: 55
- Plant response rating, Cupgrass, Woolly [3, 16]: 65
- Plant response rating, Surinam Grass [4, 14]: 40
- Plant response rating, Surinam Grass [4, 15]: 60
- Plant response rating, Surinam Grass [4, 16]: 70
- Plant response rating, Lambsquarters [5, 14]: 80
- Plant response rating, Lambsquarters [5, 15]: 95
- Plant response rating, Lambsquarters [5, 16]: 100
- Bromegrass, Downy plant response rating (0 to 100 scale) ([6]; 13 to 15 days): 10
- Plant response rating, Bromegrass, Downy [6, 14]: 10
- Plant response rating, Bromegrass, Downy [6, 15]: 35
- Plant response rating, Bromegrass, Downy [6, 16]: 40
- Plant response rating, Nutsedge, Yellow [7, 14]: 45
- Plant response rating, Nutsedge, Yellow [7, 15]: 70
- Plant response rating, Nutsedge, Yellow [7, 16]: 75
- Bermudagrass plant response rating (0 to 100 scale) ([8]; 13 to 15 days): 90
- Plant response rating, Bermudagrass [8, 14]: 80
- Plant response rating, Bermudagrass [8, 15]: 95
- Plant response rating, Bermudagrass [8, 16]: 98
- Plant response rating, Flood, Ducksalad [9]: 100
- Plant response rating, Ducksalad [9, 17]: 65
- Plant response rating, Ducksalad [9, 18]: 80
- Ducksalad plant response rating [9]: 0
- Plant response rating, Flood, Barnyardgrass [10]: 60
- Plant response rating, Barnyardgrass [10, 17]: 20
- Plant response rating, Barnyardgrass [10, 18]: 40
- Barnyardgrass plant response rating [10]: 0
- Plant response rating, Flood, Sedge, Umbrella [11]: 100
- Plant response rating, Sedge, Umbrella [11, 17]: 95
- Plant response rating, Sedge, Umbrella [11, 18]: 100
- Sedge, Umbrella plant response rating [11]: 0
- Plant response rating, Flood, Rice [12]: 35
- Plant response rating, Rice [12, 17]: 30
- Plant response rating, Rice [12, 18]: 20
- Rice plant response rating [12]: 30

From patent publication US8952024B2, “Herbicidal pyrimidone derivatives” (E I du Pont de Nemours and Company, priority 2009, dated 2015)
